Results: publication PMC8833744, “Strategic Decoy Peptides Interfere with MSI1/AGO2 Interaction to Elicit Tumor Suppression Effects” (Cancers, 2022)
Residues, ends and D or L forms follow the SMILES beside them. No end group written: not given here. *: point of attachment. 5FAM = O=C1OC2(c3ccc(O)cc3Oc3cc(O)ccc32)c2ccc(C(=O)*)cc21

Key:
endogenous AGO2 = biological target: T1, endogenous AGO2 (Homo sapiens, UniProt Q9UKV8); assay: Confocal immunofluorescence of 5′FAM-tagged peptides: cell entry and co-localization with AGO2; type: cell-based; details: 10 µM 5′FAM-tagged peptide
T1 construct: endogenous in cells
Description: (§1) Other general procedures not detailed above including plasmid constructions, transfection, co-immunoprecipitation, RNA extraction, quantitative real-time PCR (qRT-PCR), gene expression analysis, Western blotting, immunofluorescence (IF) staining, and immunohistochemistry staining (IHC) were described previously.

[1] = biological target: T2, MSI1/AGO2 interaction (M-NGluc / A-CGluc) (Homo sapiens, UniProt Q9UKV8); assay: Split Gaussia luciferase reconstitution assay of MSI1/AGO2 interaction; type: cell-based; details: IVIS; for reconstituted luciferase luminescence versus non-treated or CP-treated cells: tat-conjugated peptides, cisplatin-induced stress (30 µM)
T2 construct: expressed in transfected cells; pcDNA 3.1 and pCMV backbones
Description: We applied a gaussia luciferase (Gluc) system to detect protein–protein interaction between MSI1 and AOG2. We split gaussia luciferase into two fragments: the 106 a.a. N-terminus (NGluc) and the 79 a.a. C-terminus (CGluc). After polymerase chain reaction (PCR) amplification, the NGluc and CGluc were subjected to construct fusion protein with MSI1 and AGO2, respectively, in the pcDNA 3.1 and pCMV backbone. Each fusion protein contains a flexible linker (GGGGS) 2 between the protein and polypeptides of split luciferase. We stably transfected both fusion protein expression plasmids in DBTRG-05MG GBM cell line and generated a stable cell line with Hygromycin B (Sigma Aldrich Co., St. Louis, MI, USA) and G418 sulfate (Merck Co., […], Germany). We established a normalizing standard by transducing multiple reporter genes into the generated stable cell line for stably expressing green fluorescent protein (GFP), firefly luciferase (FLuc), and herpes simplex virus type I thymidine kinase (HSV1-tk) using lentivirus as previously described. For in vitro MSI1/AGO2 interaction study in cells, cell lysates were prepared with mild reporter lysis buffer (Promega Co., Madison, WI, USA) with a frozen–thaw cycle. The supernatant was then collected after centrifugation and dispensed in a 96-well black flat bottom plate. Coelenterazine (Nanolight Technologies, Ltd., Pinetop, AZ, USA), the substrate of GLuc, was firstly dissolved in methanol and diluted in reporter assay buffer (15 mM potassium phosphate, 25 mM glycylglycine, 15 mM MgSO4, 4 mM EDTA). D-luciferin sodium salt (Promega Co., Madison, WI, USA) was dissolved in sterilized water and diluted in reporter assay buffer supplemented with 2mM ATP. The bioluminescent signals were acquired by Wallac 1420 Victor2 Microplate Reader (Perkin Elmer, Waltham, MA, USA) equipped with auto-dispenser to avoid rapid decay of Gluc.

[2] = biological target: T3, His-tagged recombinant AGO2 (Homo sapiens, UniProt Q9UKV8); assay: Surface plasmon resonance (Biacore T200) binding of peptides to AGO2; details: for kon: read-out: ka (association rate constant); for koff: read-out: kd (dissociation rate constant)
Method: Surface Plasmon Resonance (SPR) was utilized using Biacore T200 (GE Healthcare) to study binding affinities between decoy peptides Pep#11 and Pep#26 peptides with recombinant His-tagged AGO2 protein. The recombinant His-AGO2 and MSI1 peptides were diluted in HBS-P buffer (10 mM HEPES, 150 mM NaCl and 0.005% T20, pH 7.4). To evaluate the binding affinity, recombinant His-AGO2 was immobilized on a CM5 sensor chip (GE Healthcare, BR100012) via amine coupling (~7000 RU) for 3600 s at a rate of 5 µL/mins, and flow rate for binding analysis was run at 30 µL/mins. After injection of each peptide, the surface was regenerated with an injection of 10 mM NaOH. All sensorgrams were double referenced by subtracting the surface effect from the control flow […] and the buffer effect form the blank buffer. The kinetic values ka, kd, and KD were obtained using Biacore T200 Evaluation Software (GE healthcare) assuming the Langmuir 1:1 binding model.

[3] = biological target: T3, His-tagged recombinant AGO2; assay: PepSpot peptide tiling array incubated with His-tagged AGO2; type: binding; details: 15-mer peptides on nitrocellulose, 2 μg His-AGO2 overnight, HRP anti-6×His
Method: To rapidly screen the putative binding hotspots along the C-terminus of MSI1, we mimicked the epitope screening method by dotting the synthetic short peptides on nitrocellulose membrane and incubated with purified AGO2 protein [49]. The C-terminus of MSI1 (200–362) was divided into 27 individual synthetic peptides with N-terminal amine attached on the nitrocellulose. Each peptide is 15 amino acids in length and has eight amino acids overlapping with the previous neighboring peptide (Table S1). The purchased PepSpot membrane (JPT peptide technologies, Berlin, Germany) was firstly rinsed in methanol for 5 min, followed by Tris buffer saline supplemented with 0.1% Tween-20 (TBS-T) washing thrice. The membrane was then blocked by Superblock T20 blocking buffer (Thermo Fisher Scientific Inc., Waltham, MA, USA) for 2 h and 2 μg His-tagged AGO2 recombinant protein was added for an overnight incubation. The membrane was washed thrice with TBS-T and incubated with horseradish peroxidase (HRP)-conjugated 6×His tag primary antibody (Genetex Inc., Hsinchu, Taiwan) for 4 h under 4 °C. Enhanced chemiluminescent reagent was used for further blotting.

MSI1/AGO2 interaction = biological target: T4, MSI1/AGO2 interaction (Homo sapiens, UniProt Q9UKV8); assay: Co-immunoprecipitation competition of MSI1/AGO2 complex in cells; type: cell-based; details: cells treated with 10 µM peptide, hypoxic condition
T4 construct: endogenous in cells
Description: as §1

DBTRG-05MG cell line = assay: Concentration-dependent cellular uptake (half-uptake concentration EC50); type: in vitro ADME, human; details: Figure 6A,B legend, fluorescein labeled peptides, ELISA reader
DBTRG-05MG cells [4] = assay: Degradation of 5′FAM-labeled peptides in cells; type: in vitro ADME, human; details: 5′FAM-labeled peptide, cells followed up to 6 h, fluorescence by ELISA reader, three independent experiments
[5] = system: CCND1, CDK4, HELLS, NF2, TP53, p21 mRNA; assay: qRT-PCR of downstream mRNA targets of the MSI1-AGO2 complex under hypoxia; type: cell-based, human; details: peptide transfection in DBTRG-05MG cells, hypoxia versus normoxia
Method: In vitro binding assay was carried out with N-terminal biotinylated synthetic peptides (Table S3) based on our peptide array screening. The synthesized peptides (Thermo Fisher Scientific Inc., Waltham, MA, USA) were dissolved in 10% DMSO by 1 mg/mL and subjected to incubation with an equal amount of AGO2 recombinant protein (2 μg each) in T20 blocking solution (Thermo Fisher Scientific Inc., Waltham, MA, USA). After 16 h incubation, the peptides were pulled down with immobilized streptavidin (Pierce 21115, Thermo Fisher Scientific Inc., Waltham, MA, USA). The precipitated peptide/protein complex was subjected to immunoblotting with 6×His primary antibody (GeneTex Inc., Hsinchu, Taiwan) hybridization and detection. Peptide transfection was carried out with Proteojuice (Millipore 71281, Merck Co., Darmstadt, Germany) following the manufacturer’s instruction. For the in vivo compatible cell-penetrating peptide (CPP)-modified peptides, we tested two different CPPs at the C-terminal ends, including TAT (48–60) from HIV [55, 56, 57].
as §1

DBTRG-05MG cells [6] = assay: Time-lapse cellular uptake of 5′FAM-labeled peptides; type: in vitro ADME, human; details: 5′FAM-labeled peptide, time-lapse confocal and fluorescence by ELISA reader, n = 3 per time point

T3 sequence (Q9UKV8 whole entry): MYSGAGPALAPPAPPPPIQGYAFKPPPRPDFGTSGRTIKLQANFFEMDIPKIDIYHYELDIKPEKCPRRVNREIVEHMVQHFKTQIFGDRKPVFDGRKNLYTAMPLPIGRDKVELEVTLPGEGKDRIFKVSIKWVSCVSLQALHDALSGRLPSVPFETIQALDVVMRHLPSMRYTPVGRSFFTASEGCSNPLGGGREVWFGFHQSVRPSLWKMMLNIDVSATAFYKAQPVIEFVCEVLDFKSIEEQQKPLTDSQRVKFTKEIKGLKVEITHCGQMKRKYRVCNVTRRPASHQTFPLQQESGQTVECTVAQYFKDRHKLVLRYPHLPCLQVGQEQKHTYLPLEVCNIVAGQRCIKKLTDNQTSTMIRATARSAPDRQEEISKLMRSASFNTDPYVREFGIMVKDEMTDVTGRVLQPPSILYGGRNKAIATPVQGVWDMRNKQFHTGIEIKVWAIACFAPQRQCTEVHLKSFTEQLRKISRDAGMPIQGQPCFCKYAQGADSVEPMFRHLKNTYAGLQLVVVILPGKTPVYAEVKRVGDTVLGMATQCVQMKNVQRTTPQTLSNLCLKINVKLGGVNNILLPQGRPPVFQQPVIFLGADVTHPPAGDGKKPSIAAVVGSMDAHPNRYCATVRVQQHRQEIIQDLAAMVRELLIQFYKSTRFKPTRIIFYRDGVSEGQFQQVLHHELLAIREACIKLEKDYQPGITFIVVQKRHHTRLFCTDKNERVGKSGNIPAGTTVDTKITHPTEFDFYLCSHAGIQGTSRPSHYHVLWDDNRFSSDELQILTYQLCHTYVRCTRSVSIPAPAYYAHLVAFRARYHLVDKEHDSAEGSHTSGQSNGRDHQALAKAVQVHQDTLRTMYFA
T1 sequence (Q9UKV8 whole entry): as above
T2 sequence (Q9UKV8 whole entry): as above
T4 sequence (Q9UKV8 whole entry): as above

Row | Compound | entry into cells (confocal microscopy) (endogenous AGO2) | kon [2] [M⁻¹ s⁻¹] | koff [2] [s⁻¹] | binding to AGO2 on the peptide array (immunoblot) [3] | interference with MSI1/AGO2 binding complex formation (Co-IP immunoblot) (MSI1/AGO2 interaction) | EC50 (DBTRG-05MG cell line) [µM] | reconstituted luciferase luminescence versus non-treated or CP-treated cells [1] | time of significant degradation in the cells (change in 5′FAM fluorescence) (DBTRG-05MG cells [4]) | effect of hypoxia-induced MSI1/AGO2 complex on downstream mRNAs (CCND1, CDK4, HELLS, NF2, TP53, p21) [5] | also measured
1 | CC(C)C[C@H](NC(=O)[C@@H]1CCCN1C(=O)[C@@H](NC(=O)[C@H](CCCNC(=N)N)NC(=O)[C@H](CCC(=O)O)NC(=O)[C@@H](NC(=O)[C@H](CCCNC(=N)N)NC(=O)[C@H](Cc1ccccc1)NC(=O)[C@H](CCC(=O)O)NC(=O)[C@@H]1CCCN1C(=O)[C@H](Cc1ccccc1)NC(=O)[C@H](CCC(N)=O)NC(=O)[C@H](Cc1ccc(O)cc1)NC(=O)c1ccc2c(c1)C(=O)OC21c2ccc(O)cc2Oc2cc(O)ccc21)C(C)C)[C@@H](C)O)C(=O)N1CCC[C@H]1C(=O)N[C@@H](CO)C(=O)NCC(=O)N[C@@H](CCCNC(=N)N)C(=O)N[C@@H](CCCCN)C(=O)N[C@@H](CCCCN)C(=O)N[C@@H](CCCNC(=N)N)C(=O)N[C@@H](CCCNC(=N)N)C(=O)N[C@@H](CCC(N)=O)C(=O)N[C@@H](CCCNC(=N)N)C(=O)N[C@@H](CCCNC(=N)N)C(=O)N[C@@H](CCCNC(=N)N)C(=O)N1CCC[C@H]1C(=O)N1CCC[C@H]1C(=O)N[C@@H](CCC(N)=O)C(=O)O [5′FAM-Pep#11] (5FAM-YQFPEFRVERTPLPSGRKKRRQRRRPPQ-OH) | capable of entering the cells |  |  |  |  |  |  |  |  | subcellular co-localization with AGO2 (endogenous AGO2; confocal microscopy): co-localized with endogenous AGO2 in the cytosol
2 | CC[C@H](C)[C@H](NC(=O)[C@H](CC(C)C)NC(=O)[C@@H]1CCCN1C(=O)CNC(=O)CNC(=O)[C@H](CC(C)C)NC(=O)[C@H](CO)NC(=O)[C@H](Cc1c[nH]cn1)NC(=O)c1ccc2c(c1)C(=O)OC21c2ccc(O)cc2Oc2cc(O)ccc21)C(=O)N[C@@H](C)C(=O)N[C@H](C(=O)N[C@@H](C)C(=O)N[C@@H](Cc1ccccc1)C(=O)N[C@H](C(=O)N[C@@H](CC(N)=O)C(=O)NCC(=O)NCC(=O)N[C@@H](CCCNC(=N)N)C(=O)N[C@@H](CCCCN)C(=O)N[C@@H](CCCCN)C(=O)N[C@@H](CCCNC(=N)N)C(=O)N[C@@H](CCCNC(=N)N)C(=O)N[C@@H](CCC(N)=O)C(=O)N[C@@H](CCCNC(=N)N)C(=O)N[C@@H](CCCNC(=N)N)C(=O)N[C@@H](CCCNC(=N)N)C(=O)N1CCC[C@H]1C(=O)N1CCC[C@H]1C(=O)N[C@@H](CCC(N)=O)C(=O)O)[C@@H](C)O)[C@@H](C)O [5′FAM-Pep#26] (5FAM-HSLGGPLIATAFTNGGRKKRRQRRRPPQ-OH) | capable of entering the cells |  |  |  |  |  |  |  |  | 
3 | N.N.[Cl][Pt][Cl] [cisplatin, reference compound] |  |  |  |  |  |  |  |  |  | luciferase luminescence versus PBS-treated group ([1]; cells overexpressing M-NGluc and A-CGluc, 30 µM cisplatin): significantly greater luminescence
4 | GSHPWTMAPPPGSTPGRKKRRQRRRPPQ [CP, reference compound] |  | 42500 | 4.53 |  |  |  |  |  |  | 
5 | HSLGGPLIATAFTNGGRKKRRQRRRPPQ [Pep#26] |  | 3160 | 0.00213 | strongest binding peptides | completely abolished | 9 | significantly lower | within the first half an hour | reversed | 
6 | YQFPEFRVERTPLPSGRKKRRQRRRPPQ [Pep#11] |  | 32600 | 0.0168 | strongest binding peptides | completely abolished | 9.1 | significantly lower | within the first half an hour | reversed | time of significant increases in cellular uptake (DBTRG-05MG cells [6]): within the first hour
